Where two headings read alike, the source gives them in different places.
Columns and labels:
[1] = target: T1, NaV1.3 (Homo sapiens, UniProt Q9NY46); experiment: VIPR optical membrane potential assay, NaV 1.3 inhibition; type: cell-based; parameters: expressed in transfected cells; host or cells: HEK293; details: activity against NaV 1.3 channel
Procedure: (§1) Compounds of the invention are useful as antagonists of voltage-gated sodium ion channels. Antagonist properties of test compounds were assessed as follows. Cells expressing the NaV of interest were placed into microtiter plates. After an incubation period, the cells were stained with fluorescent dyes sensitive to the transmembrane potential. The test compounds were added to the microtiter plate. The cells were stimulated with either a chemical or electrical means to evoke a NaV dependent membrane potential change from unblocked channels, which was detected and measured with trans-membrane potential-sensitive dyes. Antagonists were detected as a decreased membrane potential response to the stimulus. The optical membrane potential assay utilized voltage-sensitive FRET sensors described by Gonzalez and Tsien (See, Gonzalez, J. E. and R. Y. Tsien (1995) “Voltage sensing by fluorescence resonance energy transfer in single cells” Biophys J 69(4): 1272-80, and Gonzalez, J. E. and R. Y. Tsien (1997) “Improved indicators of cell membrane potential that use fluorescence resonance energy transfer” Chem Biol 4(4): 269-77) in combination with instrumentation for measuring fluorescence changes such as the Voltage/Ion Probe Reader (VIPR®) (See, Gonzalez, J. E., K. Oades, et al. (1999) “Cell-based assays and instrumentation for screening ion-channel targets” Drug Discov Today 4(9): 431-439).
(§2) C) VIPR® Optical Membrane Potential Assay Method with Electrical Stimulation
(§3) The following is an example of how NaV1.3 inhibition activity is measured using the optical membrane potential method#2. Other subtypes are performed in an analogous mode in a cell line expressing the NaV of interest.
HEK293 cells stably expressing NaV1.3 are plated into 96-well microtiter plates. After an appropriate incubation period, the cells are stained with the voltage sensitive dyes CC2-DMPE/DiSBAC2(3) as follows.
Reagents: • 100 mg/mL Pluronic F-127 (Sigma #P2443), in dry DMSO • 10 mM DiSBAC2(3) (Aurora #00-100-010) in dry DMSO • 10 mM CC2-DMPE (Aurora #00-100-008) in dry DMSO • 200 mM ABSC1 in H2O • Hank's Balanced Salt Solution (Hyclone #SH30268.02) supplemented with 10 mM HEPES (Gibco #15630-080)
2×CC2-DMPE=20 μM CC2-DMPE: 10 mM CC2-DMPE is vortexed with an equivalent volume of 10% pluronic, followed by vortexing in required amount of HBSS containing 10 mM HEPES. Each cell plate will require 5 mL of 2×CC2-DMPE. 50 μL of 2×CC2-DMPE is to wells containing washed cells, resulting in a 10 μM final staining concentration. The cells are stained for 30 minutes in the dark at RT.
2×DISBAC2(3) with ABSC1=6 μM DISBAC2(3) and 1 mM ABSC1: The required amount of 10 mM DISBAC2(3) is added to a 50 ml conical tube and mixed with 1 μL 10% pluronic for each mL of solution to be made and vortexed together. Then HBSS/HEPES is added to make up 2× solution. Finally, the ABSC1 is added.
The 2× DiSBAC2(3) solution can be used to solvate compound plates. Note that compound plates are made at 2× drug concentration. Wash stained plate again, leaving residual volume of 50 μL. Add 50 uL/well of the 2× DiSBAC2(3) w/ABSC1. Stain for 30 minutes in the dark at RT.
The electrical stimulation instrument and methods of use are described in ION Channel Assay Methods PCT/US01/21652, herein incorporated by reference. The instrument comprises a microtiter plate handler, an optical system for exciting the coumarin dye while simultaneously recording the coumarin and oxonol emissions, a waveform generator, a current-or voltage-controlled amplifier, and a device for inserting electrodes in well. Under integrated computer control, this instrument passes user-programmed electrical stimulus protocols to cells within the wells of the microtiter plate. […]

[2] = target: T2, NaV1.8 (Homo sapiens, UniProt Q9Y5Y9); experiment: Optical membrane potential assay, NaV 1.8 inhibition; type: cell-based; details: activity against NaV 1.8 channel
Procedure: as §1, §2, §3
(§4) The electrical stimulation instrument and methods of use are described in ION Channel Assay Methods PCT/US01/21652, herein incorporated by reference. The instrument comprises a microtiter plate handler, an optical system for exciting the coumarin dye while simultaneously recording the coumarin and oxonol emissions, a waveform generator, a current-or voltage-controlled amplifier, and a device for inserting electrodes in well. Under integrated computer control, this instrument passes user-programmed electrical stimulus protocols to cells within the wells of the microtiter plate.
(§5) Assay Protocol • 1 Insert or use electrodes into each well to be assayed. • 2. Use the current-controlled amplifier to deliver stimulation wave pulses for 3 s. Two seconds of pre-stimulus recording are performed to obtain the un-stimulated intensities. Five seconds of post-stimulation recording are performed to examine the relaxation to the resting state.
(§6) Data are analyzed and reported as normalized ratios of background-subtracted emission intensities measured in the 460 nm and 580 nm channels. Background intensities are then subtracted from each assay channel. Background intensities are obtained by measuring the emission intensities during the same time periods from identically treated assay wells in which there are no cells. The response as a function of time is then reported as the ratios obtained using the following formula: […]
(§7) The data is further reduced by calculating the initial (Ri) and final (Rf) ratios. These are the average ratio values during part or all of the pre-stimulation period, and during sample points during the stimulation period. The response to the stimulus , ρ=Rf/Ri is then calculated.
(§8) Control responses are obtained by performing assays in the presence of a compound with the desired properties (positive control) and in the absence of pharmacological agents (negative control). Responses to the negative (N) and positive (P) controls are calculated as above. The activity A of the assay well relative to positive and negative controls is defined as: […]
Target sequence in this assay (Q9Y5Y9 whole entry): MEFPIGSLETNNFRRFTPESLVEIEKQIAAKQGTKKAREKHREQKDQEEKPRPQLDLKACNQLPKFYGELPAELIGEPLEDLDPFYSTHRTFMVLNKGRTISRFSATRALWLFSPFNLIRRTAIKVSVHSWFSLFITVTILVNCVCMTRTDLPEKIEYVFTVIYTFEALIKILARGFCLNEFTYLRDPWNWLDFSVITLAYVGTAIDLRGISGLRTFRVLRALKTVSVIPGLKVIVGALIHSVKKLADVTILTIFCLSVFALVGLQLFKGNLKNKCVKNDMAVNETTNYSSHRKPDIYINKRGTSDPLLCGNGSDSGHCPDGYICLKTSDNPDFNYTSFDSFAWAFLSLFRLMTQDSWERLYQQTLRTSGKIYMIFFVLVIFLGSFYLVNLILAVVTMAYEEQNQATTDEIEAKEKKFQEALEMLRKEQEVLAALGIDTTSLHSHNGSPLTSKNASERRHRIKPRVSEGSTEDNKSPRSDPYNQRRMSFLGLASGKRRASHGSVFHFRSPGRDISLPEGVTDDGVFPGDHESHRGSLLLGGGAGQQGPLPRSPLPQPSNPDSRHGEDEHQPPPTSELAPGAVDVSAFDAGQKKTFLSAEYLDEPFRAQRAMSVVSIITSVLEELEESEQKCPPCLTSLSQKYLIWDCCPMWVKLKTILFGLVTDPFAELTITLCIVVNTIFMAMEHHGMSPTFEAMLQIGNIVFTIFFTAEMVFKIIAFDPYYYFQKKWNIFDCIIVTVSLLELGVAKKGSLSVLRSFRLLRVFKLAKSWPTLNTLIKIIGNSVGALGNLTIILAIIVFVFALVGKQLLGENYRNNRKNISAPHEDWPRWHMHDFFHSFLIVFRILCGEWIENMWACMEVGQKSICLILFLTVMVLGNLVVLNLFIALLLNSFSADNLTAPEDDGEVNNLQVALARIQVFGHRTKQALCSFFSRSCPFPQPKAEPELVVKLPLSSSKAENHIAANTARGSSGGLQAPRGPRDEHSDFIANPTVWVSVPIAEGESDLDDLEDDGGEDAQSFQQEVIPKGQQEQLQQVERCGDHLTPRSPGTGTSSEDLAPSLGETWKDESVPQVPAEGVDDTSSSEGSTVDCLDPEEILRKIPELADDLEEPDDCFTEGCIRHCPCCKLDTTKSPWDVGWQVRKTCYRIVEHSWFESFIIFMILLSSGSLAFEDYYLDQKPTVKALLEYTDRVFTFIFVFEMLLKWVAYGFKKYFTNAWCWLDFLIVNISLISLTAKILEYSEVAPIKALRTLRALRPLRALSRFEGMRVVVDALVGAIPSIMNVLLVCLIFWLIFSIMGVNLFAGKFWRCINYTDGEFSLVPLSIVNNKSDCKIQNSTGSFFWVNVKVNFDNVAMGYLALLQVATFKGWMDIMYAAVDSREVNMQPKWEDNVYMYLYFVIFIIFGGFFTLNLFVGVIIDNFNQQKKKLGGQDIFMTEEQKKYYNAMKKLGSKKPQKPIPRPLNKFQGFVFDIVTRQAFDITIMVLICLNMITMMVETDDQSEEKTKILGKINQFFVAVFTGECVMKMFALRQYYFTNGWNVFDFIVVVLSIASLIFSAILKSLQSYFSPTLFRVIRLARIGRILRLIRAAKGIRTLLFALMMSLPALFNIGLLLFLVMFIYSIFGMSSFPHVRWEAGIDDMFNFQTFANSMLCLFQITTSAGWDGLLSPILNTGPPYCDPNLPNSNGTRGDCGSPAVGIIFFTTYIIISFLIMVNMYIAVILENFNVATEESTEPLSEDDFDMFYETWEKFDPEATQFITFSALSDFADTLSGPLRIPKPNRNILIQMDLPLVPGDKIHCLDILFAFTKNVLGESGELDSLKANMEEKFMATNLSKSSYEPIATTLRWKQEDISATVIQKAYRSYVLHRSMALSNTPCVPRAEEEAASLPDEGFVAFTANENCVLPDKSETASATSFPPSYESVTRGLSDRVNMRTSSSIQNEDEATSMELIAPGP

[3] = target: NaV 1.7 channel (Homo sapiens, UniProt Q15858); experiment: Optical membrane potential assay, NaV 1.7 inhibition; type: cell-based; details: activity against NaV 1.7 channel
NaV 1.7 channel, sequence (Q15858 whole entry): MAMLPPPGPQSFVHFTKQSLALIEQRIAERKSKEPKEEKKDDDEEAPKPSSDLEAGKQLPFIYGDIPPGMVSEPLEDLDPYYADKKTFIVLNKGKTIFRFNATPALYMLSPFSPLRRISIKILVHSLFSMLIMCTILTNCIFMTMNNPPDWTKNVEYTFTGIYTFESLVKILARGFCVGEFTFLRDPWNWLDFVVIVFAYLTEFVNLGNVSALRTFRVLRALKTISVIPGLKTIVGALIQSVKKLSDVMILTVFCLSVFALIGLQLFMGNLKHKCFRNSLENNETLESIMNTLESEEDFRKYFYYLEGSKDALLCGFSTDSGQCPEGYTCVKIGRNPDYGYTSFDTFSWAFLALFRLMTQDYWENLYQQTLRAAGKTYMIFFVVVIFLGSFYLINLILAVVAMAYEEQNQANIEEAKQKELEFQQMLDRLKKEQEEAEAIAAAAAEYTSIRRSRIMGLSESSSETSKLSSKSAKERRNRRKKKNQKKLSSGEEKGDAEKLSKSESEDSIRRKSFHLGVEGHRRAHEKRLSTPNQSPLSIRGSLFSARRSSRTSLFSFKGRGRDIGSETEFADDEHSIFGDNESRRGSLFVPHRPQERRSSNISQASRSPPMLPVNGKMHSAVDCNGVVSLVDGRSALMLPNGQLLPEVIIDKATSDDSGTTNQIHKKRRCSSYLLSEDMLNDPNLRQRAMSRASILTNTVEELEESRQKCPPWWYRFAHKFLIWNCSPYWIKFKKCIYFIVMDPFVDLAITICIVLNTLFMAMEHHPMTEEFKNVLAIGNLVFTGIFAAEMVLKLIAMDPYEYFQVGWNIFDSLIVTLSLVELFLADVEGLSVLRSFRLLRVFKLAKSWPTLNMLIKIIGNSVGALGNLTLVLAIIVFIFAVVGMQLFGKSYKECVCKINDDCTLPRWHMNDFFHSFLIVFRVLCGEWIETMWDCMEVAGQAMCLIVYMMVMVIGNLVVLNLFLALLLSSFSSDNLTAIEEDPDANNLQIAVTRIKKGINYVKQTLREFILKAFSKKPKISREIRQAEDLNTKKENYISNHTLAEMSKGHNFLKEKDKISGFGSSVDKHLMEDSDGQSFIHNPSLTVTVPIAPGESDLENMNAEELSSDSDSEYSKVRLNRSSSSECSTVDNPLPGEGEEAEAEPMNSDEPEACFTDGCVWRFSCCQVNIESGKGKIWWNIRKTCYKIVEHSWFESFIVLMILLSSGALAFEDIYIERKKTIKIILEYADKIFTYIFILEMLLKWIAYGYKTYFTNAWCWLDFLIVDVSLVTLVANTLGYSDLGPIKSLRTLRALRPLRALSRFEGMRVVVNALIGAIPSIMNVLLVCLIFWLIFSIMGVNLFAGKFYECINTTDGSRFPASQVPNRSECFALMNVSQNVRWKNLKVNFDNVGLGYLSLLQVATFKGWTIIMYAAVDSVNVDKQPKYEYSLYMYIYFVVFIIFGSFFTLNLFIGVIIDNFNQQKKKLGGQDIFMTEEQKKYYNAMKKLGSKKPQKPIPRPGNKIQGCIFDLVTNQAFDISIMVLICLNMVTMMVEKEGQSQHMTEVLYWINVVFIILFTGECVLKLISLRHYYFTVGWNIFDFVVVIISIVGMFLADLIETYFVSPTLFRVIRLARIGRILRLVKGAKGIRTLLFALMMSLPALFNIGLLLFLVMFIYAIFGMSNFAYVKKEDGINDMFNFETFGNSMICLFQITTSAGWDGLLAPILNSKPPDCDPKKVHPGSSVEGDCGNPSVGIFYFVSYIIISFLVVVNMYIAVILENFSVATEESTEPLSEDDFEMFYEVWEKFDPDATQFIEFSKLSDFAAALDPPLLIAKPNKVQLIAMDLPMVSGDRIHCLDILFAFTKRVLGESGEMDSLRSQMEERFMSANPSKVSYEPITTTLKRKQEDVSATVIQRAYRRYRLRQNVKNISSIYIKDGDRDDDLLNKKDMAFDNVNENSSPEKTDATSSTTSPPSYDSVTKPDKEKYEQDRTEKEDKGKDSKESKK
Procedure: as §1, §2, §3, §4, §5, §6, §7, §8

[4] = target: NaV1.1 (Homo sapiens, UniProt P35498); details: read-out: TTX IC50; cited from earlier work
[5] = target: NaV1.6 (Homo sapiens, UniProt Q9UQD0); details: read-out: TTX IC50; cited from earlier work
[6] = target: NaV1.2 (Homo sapiens, UniProt Q99250); details: read-out: TTX IC50; cited from earlier work
[7] = target: NaV1.9 (Homo sapiens, UniProt Q9UI33); details: read-out: TTX IC50; cited from earlier work
[8] = target: T2, NaV1.8; details: read-out: TTX IC50; cited from earlier work
Target sequence in this assay (Q9Y5Y9 whole entry, looked up): as the sequence (Q9Y5Y9 whole entry) above

[9] = target: T1, NaV1.3; details: read-out: TTX IC50; cited from earlier work

Compound | IC50 [1] [µM] | IC50 [2] [µM] | IC50 [3] [µM] | other results
Cc1oc(C(C)(C)C)cc1C(=O)Nc1cccc(S(N)(=O)=O)c1 [Compound 3] | > 20 | < 2 | 10 to 20 | 
C[C@@H](c1ccc(F)cc1)N1CCN(Cc2oc(C(C)(C)C)cc2C(=O)Nc2cccc(S(N)(=O)=O)c2)CC1 [Compound 5] | 10 to 20 |  |  | 
CC(C)(C)c1cc(C(=O)Nc2cccc(S(N)(=O)=O)c2)c(CN2CCCCC2)o1 [Compound 6] | > 20 | 2 to 10 |  | 
Cc1oc(CC(C)C)c(CN2CCOCC2)c1C(=O)Nc1cccc(S(N)(=O)=O)c1 [Compound 7] | > 20 | 10 to 20 | 2 to 10 | 
Cc1oc(C(C)(C)C)c(CN2CCOCC2)c1C(=O)Nc1cccc(S(N)(=O)=O)c1 [Compound 8] | > 20 | > 20 | 10 to 20 | 
CCN(CC)Cc1oc(-c2ccccc2)cc1C(=O)Nc1cccc(S(N)(=O)=O)c1 [Compound 9] | 2 to 10 | 2 to 10 | 2 to 10 | 
Cc1ccc(OCc2occc2C(=O)Nc2cccc(S(N)(=O)=O)c2)cc1 [Compound 10] | > 20 |  | > 20 | 
Cc1oc(CC(C)C)c(CN2CCCC2)c1C(=O)Nc1cccc(S(N)(=O)=O)c1 [Compound 11] | 10 to 20 | 10 to 20 | 2 to 10 | 
Cc1oc(CC(C)C)c(CN2CCCCC2)c1C(=O)Nc1cccc(S(N)(=O)=O)c1 [Compound 12] | 10 to 20 | 2 to 10 | 2 to 10 | 
Cc1oc(C(C)(C)C)c(CO)c1C(=O)Nc1cccc(S(N)(=O)=O)c1 [Compound 13] | 10 to 20 | < 2 | 10 to 20 | 
Cc1coc(C)c1C(=O)Nc1cccc(S(N)(=O)=O)c1 [Compound 14] | > 20 | > 20 | > 20 | 
Cc1oc(C(C)(C)C)cc1C(=O)Nc1cccc(S(N)(=O)=O)c1 [Compound 18] | 10 to 20 | < 2 | 10 to 20 | 
NS(=O)(=O)c1cccc(NC(=O)c2cc(-c3ccc(Cl)cc3)cs2)c1 [Compound 19] | 10 to 20 |  |  | 
NS(=O)(=O)c1cc(NC(=O)c2cc(-c3cccc(Cl)c3)oc2C(F)(F)F)ccc1Cl [Compound 20] | > 20 |  |  | 
NS(=O)(=O)c1cccc(NC(=O)c2cccnc2Oc2ccc(Cl)cc2)c1 [Compound 21] | > 20 | > 20 |  | 
CC(C)(C)c1ccc(C(=O)Nc2cccc(S(N)(=O)=O)c2)cn1 [Compound 22, 6-tert-Butyl-N-(3-(aminosulfonyl)phenyl)pyridine-3-carboxamide] | > 20 | 10 to 20 | > 20 | 
CC(C)(C)c1nnc(C(=O)Nc2cccc(S(N)(=O)=O)c2)s1 [Compound 23, 5-tert-Butyl-N-(3-sulfamoylphenyl)-1,3,4-thiadiazole-2-carboxamide] | > 20 | > 20 | > 20 | 
Cc1nc(C(C)(C)C)sc1C(=O)Nc1cccc(S(N)(=O)=O)c1 [Compound 24] | > 20 |  | > 20 | 
Cc1oc(C(C)(C)C)nc1C(=O)Nc1cccc(S(N)(=O)=O)c1 [Compound 25] | > 20 | 10 to 20 | 10 to 20 | 
CC(C)(C)c1nc(C(=O)Nc2cccc(S(N)(=O)=O)c2)n(Cc2ccccc2)n1 [Compound 26, 5-tert-Butyl-2-benzyl-N-(3-(aminosulfonyl)phenyl)-2H-1,2,4-triazole-3-carboxamide] | > 20 | 10 to 20 |  | 
Cn1nc(C(C)(C)C)nc1C(=O)Nc1cccc(S(N)(=O)=O)c1 [Compound 27] | > 20 |  |  | 
NS(=O)(=O)c1cccc(NC(=O)c2ccc(-c3cccc(C(F)(F)F)c3)o2)c1 [Compound 29] | 2 to 10 |  | 10 to 20 | 
NS(=O)(=O)c1cccc(NC(=O)c2cc(-c3ccccc3)on2)c1 [Compound 30] |  |  | 10 to 20 | 
COc1ccc(-c2cc(C(=O)Nc3cccc(S(N)(=O)=O)c3)on2)cc1 [Compound 31] |  |  | > 20 | 
COc1cccc(-c2cc(C(=O)Nc3cccc(S(N)(=O)=O)c3)no2)c1 [Compound 32] |  |  | > 20 | 
NC1=N[C@H](O)[C@H]2[C@H]3O[C@]4(O)O[C@@H]([C@@H](O)[C@@]2(N1)[C@@H]4O)[C@]3(O)CO [TTX, tetrodotoxin] |  |  |  | IC50 [4]: 0.01 µM; IC50 [5]: 0.006 µM; IC50 [6]: 0.01 µM; IC50 [7]: 1 µM; IC50 [8]: > 50 µM; IC50 [9]: 0.015 µM
